The values that follow come from publication PMC10569260 (Nature methods, 2023).

In one experiment the test system is locomotion. The experiment can be described thus: Open field locomotion with infusion / in vivo uncaging in the VTA. Set-up: species or system mouse. Particulars: naloxone 3 mg/kg intraperitoneal before CNV-Y-DAMGO infusion and light.
Experiment [1] concerns inhibitory synaptic transmission onto CA1 pyramidal neurons (native opioid receptors). The experiment is classed as cell-based, mouse. Particulars: CTAP 1 μM, with CNV-Y-DAMGO uncaging.

As for `C=CCN1CC[C@]23c4c5ccc(O)c4O[C@H]2C(=O)CC[C@@]3(O)[C@H]1C5` [naloxone], in the experiment on locomotion, the “effect on locomotor response to DAMGO photorelease” value is reported as “strongly attenuated”.
For the compound CTAP, in experiment [1], the “effect on optically-evoked suppression of synaptic transmission” value was “completely blocked”.
